For one data set, the target named is T1, NHE9* (Equus caballus, UniProt F7B113).
T1 construct: gene SLC9A9; residues 8-575 of 644, C-terminally truncated; TEV-GFP-TwinStrep-His8 from S. cerevisiae FGY217; GFP kept for thermal shift, cut for cryo-EM; homodimer
T1 sequence (F7B113 8-575): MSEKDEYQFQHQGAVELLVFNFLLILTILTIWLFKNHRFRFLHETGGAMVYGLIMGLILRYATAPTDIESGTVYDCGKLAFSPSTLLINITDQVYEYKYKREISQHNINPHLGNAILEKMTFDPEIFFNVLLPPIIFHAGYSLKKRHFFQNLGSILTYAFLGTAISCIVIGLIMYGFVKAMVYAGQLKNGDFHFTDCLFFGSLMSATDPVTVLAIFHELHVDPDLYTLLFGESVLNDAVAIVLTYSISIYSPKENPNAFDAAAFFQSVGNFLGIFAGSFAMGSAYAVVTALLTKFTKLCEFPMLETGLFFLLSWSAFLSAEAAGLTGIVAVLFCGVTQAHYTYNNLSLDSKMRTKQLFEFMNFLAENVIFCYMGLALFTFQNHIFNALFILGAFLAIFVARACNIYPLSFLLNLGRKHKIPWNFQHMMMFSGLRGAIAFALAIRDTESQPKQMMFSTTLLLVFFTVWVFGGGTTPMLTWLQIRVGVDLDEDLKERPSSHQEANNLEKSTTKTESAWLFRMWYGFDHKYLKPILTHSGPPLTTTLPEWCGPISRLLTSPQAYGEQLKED
The data set is described as follows: GFP-based thermal shift assay. The class given is binding. Conditions: 0.1 mg/ml lipid; DDM, CHS, octyl glucoside; NHE9*-GFP fusion.

In a further data set the target is T2, EcNhaA-mut2 (Escherichia coli, UniProt P13738, A109T/Q277G/L296M).
T2 construct: gene nhaA; from E. coli Lemo21(DE3); homodimer
The data set is described as follows: cryo-EM structure. The class given is binding. The settings on record: pH 7.5; DDM; 3 mM cardiolipin added; three lipids at dimer interface; 3.3 A.

For data set [1], the target named is T3, E. coli NhaA WT-like triple mutant (A109T, Q277G, L296M) (E. coli), P13738.
T3 chain: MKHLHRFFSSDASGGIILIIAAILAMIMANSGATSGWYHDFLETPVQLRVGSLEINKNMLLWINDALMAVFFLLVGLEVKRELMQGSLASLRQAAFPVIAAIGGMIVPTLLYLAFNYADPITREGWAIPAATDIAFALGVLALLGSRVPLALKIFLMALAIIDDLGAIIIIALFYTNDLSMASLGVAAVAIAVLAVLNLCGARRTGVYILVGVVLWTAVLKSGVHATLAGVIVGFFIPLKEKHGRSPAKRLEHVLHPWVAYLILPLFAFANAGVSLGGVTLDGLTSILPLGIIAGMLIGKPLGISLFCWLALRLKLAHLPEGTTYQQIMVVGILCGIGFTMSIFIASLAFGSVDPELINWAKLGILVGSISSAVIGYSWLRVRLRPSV
The data set is described as follows: cryo-EM structure; NhaA triple-mutant-GFP fusion in DDM with 3 mM cardiolipin (18:1) added, 20 mM Tris-HCl pH 7.5, 150 mM NaCl, 0.03% DDM; three cardiolipins modelled at the dimer interface. The settings on record: remark: other sources report otherwise.

Data set [2] deals with the molecule itself. The data set is described as follows: cryo-EM structure; NHE9* at pH 6.5, 20 mM Mes-Tris, 150 mM NaCl, 0.003% LMNG, 0.0006% CHS; C2 symmetry; AlphaFold2 multimer model refined into a composite map.
Data set [3] concerns the molecule itself. The data set is described as follows: cryo-EM structure; NHE9*CC purified with bovine brain lipid extract, 20 mM Tris-HCl pH 8, 150 mM NaCl, 0.003% LMNG, 0.0006% CHS; C2 symmetry; two PI(3,5)P2 modelled at the dimer interface.

For the molecule `CCCCCCCCCCCCCCCC(=O)OC[C@H](COP(=O)(O)O[C@@H]1[C@H](O)[C@H](OP(=O)(O)O)[C@@H](O)[C@H](OP(=O)(O)O)[C@H]1O)OC(=O)CCCCCCCCCCCCCCC` [PI(3,5)P2 dipalmitoyl], the dTm on NHE9* worked out at 15 °C.
Same read-out and setting: with `CCCCCCCC(=O)OC[C@H](COP(=O)(O)O[C@@H]1[C@H](O)[C@H](O)[C@@H](OP(=O)(O)O)[C@H](OP(=O)(O)O)[C@H]1O)OC(=O)CCCCCCC` [PI(4,5)P2 dioctanoyl] the figure was 8 °C.
In the case of `CCCCCCCC/C=C\CCCCCCCC(=O)OC[C@H](COP(=O)(O)OCC(O)COP(=O)(O)OC[C@@H](COC(=O)CCCCCCC/C=C\CCCCCCCC)OC(=O)CCCCCCC/C=C\CCCCCCCC)OC(=O)CCCCCCC/C=C\CCCCCCCC` (stereo partly drawn) [cardiolipin (18:1)], the cryo-EM structure result on EcNhaA-mut2 is reported as “map density supported the modelling of cardiolipin at the dimerization interface”.

B1: E. coli NhaA WT-like triple mutant (A109T, Q277G, L296M), P13738 1-388 (natural protein)
chain: MKHLHRFFSSDASGGIILIIAAILAMIMANSGATSGWYHDFLETPVQLRVGSLEINKNMLLWINDALMAVFFLLVGLEVKRELMQGSLASLRQAAFPVIAAIGGMIVPTLLYLAFNYADPITREGWAIPAATDIAFALGVLALLGSRVPLALKIFLMALAIIDDLGAIIIIALFYTNDLSMASLGVAAVAIAVLAVLNLCGARRTGVYILVGVVLWTAVLKSGVHATLAGVIVGFFIPLKEKHGRSPAKRLEHVLHPWVAYLILPLFAFANAGVSLGGVTLDGLTSILPLGIIAGMLIGKPLGISLFCWLALRLKLAHLPEGTTYQQIMVVGILCGIGFTMSIFIASLAFGSVDPELINWAKLGILVGSISSAVIGYSWLRVRLRPSV
Regarding B1, the stoichiometry N in data set [1] amounted to 2.

B2: E. caballus NHE9* (residues 8 to 575), tag removed (domain or fragment, Equus caballus, UniProt F7B113 8-575, looked up)
chain: MSEKDEYQFQHQGAVELLVFNFLLILTILTIWLFKNHRFRFLHETGGAMVYGLIMGLILRYATAPTDIESGTVYDCGKLAFSPSTLLINITDQVYEYKYKREISQHNINPHLGNAILEKMTFDPEIFFNVLLPPIIFHAGYSLKKRHFFQNLGSILTYAFLGTAISCIVIGLIMYGFVKAMVYAGQLKNGDFHFTDCLFFGSLMSATDPVTVLAIFHELHVDPDLYTLLFGESVLNDAVAIVLTYSISIYSPKENPNAFDAAAFFQSVGNFLGIFAGSFAMGSAYAVVTALLTKFTKLCEFPMLETGLFFLLSWSAFLSAEAAGLTGIVAVLFCGVTQAHYTYNNLSLDSKMRTKQLFEFMNFLAENVIFCYMGLALFTFQNHIFNALFILGAFLAIFVARACNIYPLSFLLNLGRKHKIPWNFQHMMMFSGLRGAIAFALAIRDTESQPKQMMFSTTLLLVFFTVWVFGGGTTPMLTWLQIRVGVDLDEDLKERPSSHQEANNLEKSTTKTESAWLFRMWYGFDHKYLKPILTHSGPPLTTTLPEWCGPISRLLTSPQAYGEQLKED
notes: Endosomal Na+/H+ exchanger NHE9 (SLC9A9), Equus caballus, partially truncated on the C-terminal tail, residues 8 to 575 out of a total of 644; also called SLC9A9; not shown: GFP, C-terminal, cleaved; TwinStrep, C-terminal, cleaved; His8, C-terminal, cleaved
Take B2: in data set [2], the “stoichiometry N” value amounted to 2.

B3: E. caballus NHE9*CC (NHE9* L139C-I444C double mutant) (domain or fragment, Equus caballus, UniProt F7B113 8-575, looked up)
chain: MSEKDEYQFQHQGAVELLVFNFLLILTILTIWLFKNHRFRFLHETGGAMVYGLIMGLILRYATAPTDIESGTVYDCGKLAFSPSTLLINITDQVYEYKYKREISQHNINPHLGNAILEKMTFDPEIFFNVLCPPIIFHAGYSLKKRHFFQNLGSILTYAFLGTAISCIVIGLIMYGFVKAMVYAGQLKNGDFHFTDCLFFGSLMSATDPVTVLAIFHELHVDPDLYTLLFGESVLNDAVAIVLTYSISIYSPKENPNAFDAAAFFQSVGNFLGIFAGSFAMGSAYAVVTALLTKFTKLCEFPMLETGLFFLLSWSAFLSAEAAGLTGIVAVLFCGVTQAHYTYNNLSLDSKMRTKQLFEFMNFLAENVIFCYMGLALFTFQNHIFNALFILGAFLAIFVARACNIYPLSFLLNLGRKHKIPWNFQHMMMFSGLRGACAFALAIRDTESQPKQMMFSTTLLLVFFTVWVFGGGTTPMLTWLQIRVGVDLDEDLKERPSSHQEANNLEKSTTKTESAWLFRMWYGFDHKYLKPILTHSGPPLTTTLPEWCGPISRLLTSPQAYGEQLKED
notes: Endosomal Na+/H+ exchanger NHE9 (SLC9A9), Equus caballus, residues 8 to 575 out of a total of 644, with L139C and I444C; also called cysteine variant; not shown: GFP, C-terminal, cleaved; TwinStrep, C-terminal, cleaved; His8, C-terminal, cleaved
On to B3, for which, in data set [3], the “stoichiometry N” value was 2.

The stoichiometry N is a count of units in the complex or per binding partner.

Values taken from PMC11953442, “PIP2-mediated oligomerization of the endosomal sodium/proton exchanger NHE9” (Nature Communications, 2025).
